{
  "source": "paper PMC11730522",
  "about": "(BMC Pharmacology & Toxicology, 2025)",
  "test": "Pharmacokinetic study, plasma EZ levels by HPLC",
  "assay_type": "in vivo, rats",
  "data": [
    {"smiles": "O=C1[C@H](CC[C@H](O)c2ccc(F)cc2)[C@@H](c2ccc(O)cc2)N1c1ccc(F)cc1", "note": "[EZ, Ezetimibe]", "values": [
      {"measurement": "drop of plasma level of EZ from the highest level", "setting": "after 4 h", "value": 50, "unit": "%"},
      {"measurement": "Tmax", "setting": "rat, plasma, po, 10 mg/kg", "value": 2, "unit": "h"},
      {"measurement": "peak plasma concentration of EZ", "setting": "rats, oral", "value": "24.36 ± 1.36", "unit": "µg/mL"}
    ]}
  ]
}
